For 8 molecules, Activity, Ki and Km results are on record in ChEMBL document CHEMBL3272104, “Inhibition of Lactobacillus casei thymidylate synthetase by 5-substituted 2'-deoxyuridylates. Preliminary quantitative structure-activity relationship” (J Med Chem, 1977).

Data set [1] deals with T1, Thymidylate synthase (Lactobacillus casei) (UniProt P00469).
T1 sequence (whole entry): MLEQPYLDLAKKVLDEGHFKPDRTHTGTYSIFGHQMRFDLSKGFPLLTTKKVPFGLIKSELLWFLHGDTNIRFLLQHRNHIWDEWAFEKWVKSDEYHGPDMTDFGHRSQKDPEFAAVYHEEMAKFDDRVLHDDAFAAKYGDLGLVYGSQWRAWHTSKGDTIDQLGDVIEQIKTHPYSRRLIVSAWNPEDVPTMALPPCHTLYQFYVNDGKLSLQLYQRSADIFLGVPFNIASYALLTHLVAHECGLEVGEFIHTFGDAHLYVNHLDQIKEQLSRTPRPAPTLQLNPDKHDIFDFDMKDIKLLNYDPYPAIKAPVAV
In words: Activity at amethopterin-resistant Lactobacillus casei thymidylate synthetase assessed as rate of dTMP formation by absorbance analysis in presence of CH2-H4-folate. The conditions noted are these: Lacticaseibacillus casei.

Data set [2] has as its target T2, Thymidylate synthase (Lactobacillus casei, UniProt P00469).
T2 sequence (P00469 whole entry): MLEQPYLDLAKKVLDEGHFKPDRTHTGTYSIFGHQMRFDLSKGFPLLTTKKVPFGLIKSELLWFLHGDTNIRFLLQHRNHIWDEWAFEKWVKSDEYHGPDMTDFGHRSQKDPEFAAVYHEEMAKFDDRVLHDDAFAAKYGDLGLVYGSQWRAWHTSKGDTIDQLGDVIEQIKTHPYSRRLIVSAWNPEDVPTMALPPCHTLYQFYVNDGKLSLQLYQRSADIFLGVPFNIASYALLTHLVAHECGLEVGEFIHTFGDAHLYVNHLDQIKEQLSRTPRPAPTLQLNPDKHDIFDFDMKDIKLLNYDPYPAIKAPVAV
In words: Inhibition of amethopterin-resistant Lactobacillus casei thymidylate synthetase-catalyzed dTMP formation using dUMP as substrate by spectrophotometric analysis in presence of CH2-H4-folate. More on the design: species or system Lacticaseibacillus casei. The conditions noted are these: read-out: Ki(app).

The target of data set [3] is T2, Thymidylate synthase. In words: Inhibition of amethopterin-resistant Lactobacillus casei thymidylate synthetase-catalyzed 5-BrdUMP dehalogenation by absorbance analysis in absence of CH2-H4-folate. Also noted: species or system Lacticaseibacillus casei. The conditions noted are these: read-out: Ki(app).
Substrate in data set [4]: O=c1[nH]c(=O)n([C@H]2C[C@H](O)[C@@H](COP(=O)(O)O)O2)cc1Br
In words: Activity at amethopterin-resistant Lactobacillus casei thymidylate synthetase by absorbance analysis. The conditions noted are these: Lacticaseibacillus casei.

Substrate in data set [5]: O=c1[nH]c(=O)n([C@H]2C[C@H](O)[C@@H](COP(=O)(O)O)O2)cc1I
The description is as above. The conditions noted are these: Lacticaseibacillus casei.

Substrate in data set [6]: O=c1ccn([C@H]2C[C@H](O)[C@@H](COP(=O)(O)O)O2)c(=O)[nH]1
Description: Activity at amethopterin-resistant Lactobacillus casei thymidylate synthetase by spectrophotometric analysis in presence of CH2-H4-folate
The conditions noted are these: Lacticaseibacillus casei.

`O=c1[nH]c(=O)n([C@H]2C[C@H](O)[C@@H](COP(=O)(O)O)O2)cc1I`: the Activity in data set [1] stood at 2.5%. The Ki on Thymidylate synthase [2] came to 1.6 µM.

As for `Cc1cn([C@H]2C[C@H](O)[C@@H](COP(=O)(O)O)O2)c(=O)[nH]c1=O` [THYMIDINE MONOPHOSPHATE], the results for the Ki at Thymidylate synthase [2] and on Thymidylate synthase [3] were 15.5 µM and 8.69 µM, respectively.

Turning to `O=c1[nH]c(=O)n([C@H]2C[C@H](O)[C@@H](COP(=O)(O)O)O2)cc1Cl`, the Ki came to 0.19 µM at Thymidylate synthase [2] and 9.39 µM on Thymidylate synthase [3].

With `O=c1[nH]c(=O)n([C@H]2C[C@H](O)[C@@H](COP(=O)(O)O)O2)cc1C(F)(F)F`, the Ki at Thymidylate synthase [2] stood at 0.039 µM.

Take `O=c1[nH]c(=O)n([C@H]2C[C@H](O)[C@@H](COP(=O)(O)O)O2)cc1Br`: in data set [1], the Activity turned out to be 3%. For the same molecule, at Thymidylate synthase [2], the Ki came out at 1.4 µM.

As to `O=c1ccn([C@H]2C[C@H](O)[C@@H](COP(=O)(O)O)O2)c(=O)[nH]1` [DEOXYURIDINE MONOPHOSPHATE], the Ki on Thymidylate synthase [3] stood at 2.26 µM.

Take `O=Cc1cn([C@H]2C[C@H](O)[C@@H](COP(=O)(O)O)O2)c(=O)[nH]c1=O`: on Thymidylate synthase [2], the Ki stood at 0.017 µM.

B1: Thymidylate synthase (Lactobacillus casei), P00469 (protein)
chain: MLEQPYLDLAKKVLDEGHFKPDRTHTGTYSIFGHQMRFDLSKGFPLLTTKKVPFGLIKSELLWFLHGDTNIRFLLQHRNHIWDEWAFEKWVKSDEYHGPDMTDFGHRSQKDPEFAAVYHEEMAKFDDRVLHDDAFAAKYGDLGLVYGSQWRAWHTSKGDTIDQLGDVIEQIKTHPYSRRLIVSAWNPEDVPTMALPPCHTLYQFYVNDGKLSLQLYQRSADIFLGVPFNIASYALLTHLVAHECGLEVGEFIHTFGDAHLYVNHLDQIKEQLSRTPRPAPTLQLNPDKHDIFDFDMKDIKLLNYDPYPAIKAPVAV
For orientation: Km means the substrate concentration at which the rate is half of its maximum. Take B1: the Michaelis constant (Km) in data set [4] was determined as 5.7 µM; in data set [5], 1.44 µM; in data set [6], 5.2 µM.
